ChEMBL document CHEMBL1201862, “PubChem BioAssay data set” (2004)
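Values below derive from 48-hour exposures of cells grown in 96-well plates, with endpoints linearly interpolated between the two concentrations bracketing the appropriate inhibition level. GI50 marks 50% less growth.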 Calls of active or inactive are those of the source. Rule as the data show it: active = GI50 up to about 1.1 µM and inactive = higher.

Legend:
Assay in all cases: inhibition of tumour cell growth, NCI panel, 48 h
HOP-92 = system: HOP-92
IGROV-1 = system: IGROV-1
HL-60 = system: HL-60
NCI-H23 = system: NCI-H23
ACHN = system: ACHN
SF-539 = system: SF-539
KM-20L2 = system: KM-20L2
MOLT-4 = system: MOLT-4
K562 = system: K562
HCT-15 = system: HCT-15
SN12C = system: SN12C
SF-268 = system: SF-268
CCRF-CEM = system: CCRF-CEM
OVCAR-8 = system: OVCAR-8
SNB-78 = system: SNB-78
SW-620 = system: SW-620
HOP-62 = system: HOP-62
UACC-62 = system: UACC-62
HCT-116 = system: HCT-116
M14 = system: M14
OVCAR-5 = system: OVCAR-5
A498 = system: A498
UO-31 = system: UO-31
DMS-114 = system: DMS-114
CAKI-1 = system: CAKI-1
XF498 = system: XF498
NCI-H522 = system: NCI-H522
SF-295 = system: SF-295
EKVX = system: EKVX
DLD-1 = system: DLD-1
M19-MEL = system: M19-MEL
RPMI-8226 = system: RPMI-8226
LXFL 529 = system: LXFL 529
SNB-19 = system: SNB-19
HCC 2998 = system: HCC 2998
NCI-H460 = system: NCI-H460
A549 = system: A549
U-251 = system: U-251
HT-29 = system: HT-29
Malme-3M = system: Malme-3M
SK-OV-3 = system: SK-OV-3
RXF 393 = system: RXF 393
UACC-257 = system: UACC-257
KM12 = system: KM12
TK-10 = system: TK-10
SK-MEL-28 = system: SK-MEL-28
OVCAR-3 = system: OVCAR-3
SK-MEL-5 = system: SK-MEL-5
LOX IMVI = system: LOX IMVI
COLO 205 = system: COLO 205
OVCAR-4 = system: OVCAR-4
786-0 = system: 786-0
SK-MEL-2 = system: SK-MEL-2
SNB-75 = system: SNB-75
HOP-18 = system: HOP-18
NCI-H226 = system: NCI-H226

CC1=NN(C(=O)c2ccc(Cl)cc2)C(=O)/C1=C/c1ccccc1O
GI50 (HOP-92): > 100 µM (inactive) | GI50 (IGROV-1): > 100 µM (inactive) | GI50 (HL-60): > 100 µM (inactive) | GI50 (NCI-H23): > 100 µM (inactive) | GI50 (ACHN): > 100 µM (inactive) | GI50 (SF-539): > 100 µM (inactive) | GI50 (KM-20L2): > 100 µM (inactive) | GI50 (MOLT-4): > 100 µM (inactive) | GI50 (K562): > 100 µM (inactive) | GI50 (HCT-15): > 100 µM | GI50 (SN12C): > 100 µM (inactive) | GI50 (SF-268): > 100 µM (inactive) | GI50 (CCRF-CEM): > 100 µM (inactive) | GI50 (OVCAR-8): > 100 µM (inactive) | GI50 (SNB-78): > 100 µM (inactive) | GI50 (SW-620): > 100 µM (inactive) | GI50 (HOP-62): > 100 µM (inactive) | GI50 (UACC-62): > 100 µM (inactive) | GI50 (HCT-116): > 100 µM (inactive) | GI50 (M14): > 100 µM (inactive) | GI50 (OVCAR-5): > 100 µM (inactive) | GI50 (A498): > 100 µM (inactive) | GI50 (UO-31): > 100 µM (inactive) | GI50 (DMS-114): > 100 µM (inactive) | GI50 (CAKI-1): > 100 µM (inactive) | GI50 (XF498): > 100 µM (inactive) | GI50 (NCI-H522): > 100 µM (inactive) | GI50 (SF-295): > 100 µM (inactive) | GI50 (EKVX): > 100 µM (inactive) | GI50 (DLD-1): > 100 µM (inactive) | GI50 (M19-MEL): > 100 µM (inactive) | GI50 (RPMI-8226): > 100 µM (inactive) | GI50 (LXFL 529): > 100 µM (inactive) | GI50 (SNB-19): > 100 µM (inactive) | GI50 (HCC 2998): > 100 µM (inactive) | GI50 (NCI-H460): > 100 µM (inactive) | GI50 (A549): > 100 µM (inactive) | GI50 (U-251): > 100 µM (inactive) | GI50 (HT-29): > 100 µM (inactive) | GI50 (Malme-3M): > 100 µM (inactive) | GI50 (SK-OV-3): > 100 µM (inactive) | GI50 (RXF 393): > 100 µM (inactive) | GI50 (UACC-257): > 100 µM (inactive) | GI50 (KM12): > 100 µM (inactive) | GI50 (TK-10): > 100 µM (inactive) | GI50 (SK-MEL-28): > 100 µM (inactive) | GI50 (OVCAR-3): > 100 µM (inactive) | GI50 (SK-MEL-5): > 100 µM (inactive) | GI50 (LOX IMVI): > 100 µM (inactive) | GI50 (COLO 205): > 100 µM (inactive) | GI50 (OVCAR-4): > 100 µM (inactive) | GI50 (786-0): > 100 µM (inactive) | GI50 (SK-MEL-2): > 100 µM (inactive)

CCOC(=O)C(C)(C)Oc1ccc2c(=O)cc(-c3ccccc3)oc2c1
GI50 (IGROV-1): 29.5 µM (inactive) | GI50 (HL-60): 14.1 µM (inactive) | GI50 (NCI-H23): 18.6 µM (inactive) | GI50 (ACHN): 54.7 µM (inactive) | GI50 (SF-539): 20.2 µM (inactive) | GI50 (KM-20L2): 24.2 µM (inactive) | GI50 (MOLT-4): 13.8 µM (inactive) | GI50 (K562): 13 µM (inactive) | GI50 (HCT-15): 20 µM | GI50 (SN12C): 32.1 µM (inactive) | GI50 (SF-268): 22.3 µM (inactive) | GI50 (CCRF-CEM): 18 µM (inactive) | GI50 (OVCAR-8): 23 µM (inactive) | GI50 (SNB-78): 26.7 µM (inactive) | GI50 (SW-620): 22.8 µM (inactive) | GI50 (HOP-62): 18.5 µM (inactive) | GI50 (UACC-62): 18.2 µM (inactive) | GI50 (HCT-116): 17.3 µM (inactive) | GI50 (SNB-75): 19.1 µM (inactive) | GI50 (M14): 19.5 µM (inactive) | GI50 (OVCAR-5): > 100 µM (inactive) | GI50 (A498): > 100 µM (inactive) | GI50 (UO-31): 48.6 µM (inactive) | GI50 (DMS-114): 17.9 µM (inactive) | GI50 (NCI-H522): 13.9 µM (inactive) | GI50 (SF-295): 26.5 µM (inactive) | GI50 (EKVX): 31.9 µM (inactive) | GI50 (M19-MEL): 20.7 µM (inactive) | GI50 (RPMI-8226): 14.1 µM (inactive) | GI50 (LXFL 529): 19 µM (inactive) | GI50 (SNB-19): 18.8 µM (inactive) | GI50 (HCC 2998): > 100 µM (inactive) | GI50 (NCI-H460): 27.7 µM (inactive) | GI50 (A549): 23.1 µM (inactive) | GI50 (U-251): 18.2 µM (inactive) | GI50 (Malme-3M): 22.9 µM (inactive) | GI50 (SK-OV-3): > 100 µM (inactive) | GI50 (RXF 393): 21.2 µM (inactive) | GI50 (HOP-18): 22.8 µM (inactive) | GI50 (UACC-257): 17.4 µM (inactive) | GI50 (NCI-H226): 22.8 µM (inactive) | GI50 (KM12): 18.9 µM (inactive) | GI50 (TK-10): > 100 µM (inactive) | GI50 (SK-MEL-28): 16.7 µM (inactive) | GI50 (OVCAR-3): 19.5 µM (inactive) | GI50 (SK-MEL-5): 14.8 µM (inactive) | GI50 (LOX IMVI): 17.5 µM (inactive) | GI50 (COLO 205): 19.6 µM (inactive) | GI50 (786-0): 16.3 µM (inactive) | GI50 (SK-MEL-2): 16.9 µM (inactive)
